Patent publication US20240368668A1, “SUBSTRATES AND BIOMARKERS OF ADAMTS7” (The Broad Institute, Inc., priority 2021, published 2024)
Square brackets hold non-standard residues; d marks the D form. Ends that are not written are not given here.

Tested on: mouse ADAMTS7
Assay: TMT10 TAILS N-terminomics, HUVEC experiment (process replicates, trypsin/AspN digest)
Type: cell-based, human
Conditions: for logFC.mWT.over.mEQ: HUVEC TAILS HC, log fold change of N-terminal peptide, Ad-mADAMTS7 WT over EQ
Procedure, shortened: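 Full-length mouse ADAMTS7 (WT or E373Q mutant, C-terminal 3xFLAG) or luciferase was transduced via adenovirus, 50 MOI, into HCA-SMC (SMC1, SMC2) or HUVEC. SMC1: pooled media, technical triplicates 400 ug; SMC2: process triplicates 300 ug; HUVEC: process triplicates 200 ug, bFGF2 10 ng/ml.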

**Q.** With “ERAP2_718 (ISENLKR; listed as Homo sapiens)” as the substance, how does the logFC.mWT.over.mEQ read?
**A.** Its logFC.mWT.over.mEQ is 4.41.

**Q.** Which logFC.mWT.over.mEQ does the source give for “ECM1_108 (QEAVPLQK; listed as Homo sapiens)” here?
**A.** Its logFC.mWT.over.mEQ is 2.12.

**Q.** For “FN1_2113 (FVTHPGY; listed as Homo sapiens)”, which logFC.mWT.over.mEQ is on record?
**A.** The logFC.mWT.over.mEQ was 1.67.

**Q.** How did the logFC.mWT.over.mEQ turn out when “FN1_35 ([code q]MVQPQSPVAVSQSKPGCY; not fully specified (residue 2); listed as Homo sapiens)” was run?
**A.** The logFC.mWT.over.mEQ was 2.58.

**Q.** Which logFC.mWT.over.mEQ does the source give for “LOX_125 (FQAGYSTSR; listed as Homo sapiens)” here?
**A.** The logFC.mWT.over.mEQ was 3.58.

**Q.** For “FN1_1780 (LQGLRPGSEYTVSVVALH; listed as Homo sapiens)”, which logFC.mWT.over.mEQ is on record?
**A.** Its logFC.mWT.over.mEQ is 2.27.

**Q.** With “FN1_607 (SSSGPVEVFIT; listed as Homo sapiens)” as the substance, how does the logFC.mWT.over.mEQ read?
**A.** The logFC.mWT.over.mEQ was 2.71.

**Q.** What about the “HUVEC logFC.mWT.over.mEQ” value (HUVEC experiment, log fold change, mouse ADAMTS7 WT over EQ) of the same substance?
**A.** The value was 2.04.

**Q.** “EFEMP1_125_ (VAGPEMQTGR; listed as Homo sapiens)” was tested. Which logFC.mWT.over.mEQ did it give?
**A.** Its logFC.mWT.over.mEQ is 2.45.

**Q.** For “FN1_34 ([code q]QMVQPQSPVAVSQSKPGCY; not fully specified (residue 3); listed as Homo sapiens)”, which logFC.mWT.over.mEQ is on record?
**A.** Its logFC.mWT.over.mEQ is 1.43.

**Q.** With “FN1_1805 (LIGTQSTAIPAPT; listed as Homo sapiens)” as the substance, how does the logFC.mWT.over.mEQ read?
**A.** Its logFC.mWT.over.mEQ is 1.42.

**Q.** Which logFC.mWT.over.mEQ does the source give for “FN1_293 (VYQPQPHPQPPPYGHCVT; listed as Homo sapiens)” here?
**A.** The logFC.mWT.over.mEQ was 1.24.

**Q.** Which logFC.mWT.over.mEQ does the source give for “EWSR1_87 (YSQPVQGYGTGAY; listed as Homo sapiens)” here?
**A.** Its logFC.mWT.over.mEQ is 1.15.

**Q.** For “FN1_1144 (TPGVEYVYTIQVLR; listed as Homo sapiens)”, which logFC.mWT.over.mEQ is on record?
**A.** The logFC.mWT.over.mEQ was 1.62.

**Q.** “FSTL1_290 (LQKHQETA; listed as Homo sapiens)” was tested. Which logFC.mWT.over.mEQ did it give?
**A.** Its logFC.mWT.over.mEQ is 2.57.
